Assay results as given in publication PMC9983021, “Novel GluN2B-Selective NMDA Receptor Negative Allosteric Modulator Possesses Intrinsic Analgesic Properties and Enhances Analgesia of Morphine in a Rodent Tail Flick Pain Model” (ACS Chemical Neuroscience, 2023).

Legend:
GABAA = experiment: Radioligand binding assay (NIMH PDSP); design: species or system human; details: primary screen, 10 µM, quadruplicate
Method: (§1) Conventional competition and saturation radioligand binding assays were used to determine the affinities of reference standards and EU93-108. Experiments were carried out by the NIMH Psychoactive Drug Screening Program (PDSP) and were performed as previously described.[123]
(§2) The detailed experimental protocols for the radioligand assays are available on the NIMH PDSP website at https://pdsp.unc.edu/pdspweb/content/UNC-CH%20Protocol%20Book.pdf.
(§3) Receptor Mean % Receptor Mean % Receptor Mean %
(§4) Inhibition Inhibition Inhibition
(§5) Supplemental Table S4. Off-Target Actions of EU93-108: Primary GPCR Screen. Cloned human molecular targets were individually expressed and submitted to molecular target-based screening with initial screens performed at a final concentration of 10 µM in quadruplicate. Complete protocols for the assays have been previously published (Besnard J et al. 2012). Where inhibition greater than 50% was measured, secondary screens were performed wherein Ki values were calculated (see Table 4).

PBR = experiment: Radioligand binding assay (NIMH PDSP); design: species or system human; details: primary screen, 10 µM, quadruplicate
Method: as §1, §2, §3, §4, §5

in vivo = experiment: in vivo; design: species or system mice; details: C57BL/6J, mouse, ip
Method: Some NMDAR antagonists can impact locomotor behavior in animals.[84]−[86] Lower doses have minimal impact while high doses can have anesthetic action that can produce complete immobility. We evaluated this potential side effect in a locomotor assay using a range of doses of EU93-108.
For both male and female mice, n = 8 mice per group were used. Locomotor activity was assessed at 3, 5, 7, 10, 20, and 30 mg/kg EU93-108. Mice were brought to the experiment room the night before and given ad libitum access to food and water. Each mouse was given an i.p. injection of the appropriate dose or vehicle 30 min prior to starting the locomotor boxes (Versamax420 Animal Activity Monitoring System, AccuScan Instruments, Inc., Columbus, OH). Movements of the mice were tracked for 1 h then the mice were placed back in their cages. Data were analyzed using one-way ANOVA and Dunnett’s post hoc test for multiple comparisons where each group was compared to vehicle. Data are presented as mean ± SEM.

Sprague-Dawley rats = experiment: Chung spinal nerve ligation model of allodynia; assay type: in vivo; details: male rats, 10 mg/kg i.p., n=10
Method: Methods for Chung Spinal Nerve Ligation
The Chung spinal nerve ligation model was implemented by Algos Therapeutics. Male Sprague-Dawley rats (Hsd:Sprague-Dawley®™SD®™, Harlan, Indianapolis, Indiana, U.S.A.) weighing 222 ± 1 g were housed three per cage and given ad libitum access to food and water. Animal holding rooms operated on a 12:12h light/dark schedule for the entire duration of the study. The animal colony was maintained at 21 °C and 60% humidity. All experiments were conducted in accordance with the International Association for the Study of Pain guidelines and were approved by the University of Minnesota Animal Care and Use Committee.
Allodynia was induced via the Chung spinal nerve ligation (SNL) method116 in which the animals were anesthetized with isoflurane, the left L5 transverse process was removed, then the L5 and L6 spinal nerves were tightly ligated with 6-0 silk suture. Finally, the wound was closed with internal sutures and external staples. Allodynia was assessed using 8 Semmes-Weinstein filaments (Stoelting, Wood Dale, IL, USA) with varying stiffness (0.4, 0.7, 1.2, 2.0, 3.6, 5.5, 8.5, and 15 g) following the up-down method117 first published by Chaplan et al. in 1994. Baseline measurements were taken two weeks following SNL and prior to compound administration. Measurements were also taken 30, 60, 120 and 240 minutes post intraperitoneal compound injection. […]

[1] = biological target: triheteromeric rat GluN1/GluN2Ac1/GluN2Bc2 (r2Ac1/r2Bc2) (Rattus norvegicus, UniProt P35439+Q00959+Q00960, A876H/F846L/G856D/H848F/K857R/M851T/M860L/Q845K/V861L); experiment: Concentration-inhibition curves, oocytes, C1/C2-tagged NMDARs; assay type: cell-based

## CS(=O)(=O)Nc1ccc(OC[C@@H](O)CN2CCN(c3ccc(F)c(F)c3)CC2)cc1 [EU93-108, (S)-N-(4-(3-(4-(3,4-Difluorophenyl)piperazin-1-yl)-2-hydroxypropoxy)phenyl)methanesulfonamide]
GABAA
  Mean % Inhibition: 1.91%
PBR
  Mean % Inhibition: -0.34%
In vivo; female
  ED50 at 1 h: 15.2 mg/kg
In vivo; male
  ED50 at 1 h: 13.5 mg/kg
Sprague-Dawley rats
  effect on allodynia (von Frey threshold): efficacious
[1]; 10 μM, % of maximal response, n = 12
  residual current remaining at 10 μM EU93-108: 54%
[1]; 100 μM glutamate and 100 μM glycine, −40 mV, pH 7.4, n = 12
  IC50: 543 nM
[1]; Hill slope factor of the inhibition curve, Table S1
  nH: -0.92
[1]; residual response, Table S1, N = 12
  Ymin: 54.0
